Entries after “also recorded” stand apart in the source; their conditions may differ. Where two headings read alike, the source gives them in different places.
What was measured:
C2BBe1 = system: C2BBe1
Method: Specifically, monolayers of C2BBe1 were treated with 10 mM LA and were subjected to anoxia for 2 hours followed by reoxygenation with 21% O2 for 1 hour. Next-generation RNA sequencing and biostatistical analyses were employed to assess cellular regulatory pathways.

C2BBe1 intestinal cells = settings: 10 mM LA; A/R injury; compared to non-treated A/R injured cells
Method: Specifically, to evaluate barrier function, transepithelial electrical resistance (TEER) was measured in anoxia/reoxygenation (A/R)-injured C2BBe1 (Caco-2 brush border-expressing Caco-2) cells treated with or without larazotide acetate (LA). Monolayers of C2BBe1 were treated with LA (0.001, 0.1, 1, and 10 mM) and were subjected to anoxia for 2 hours followed by reoxygenation with 21% O2. To generate A/R injury, C2BBe1 cells were placed in a modular incubator chamber (Billups-Rothenberg, San Diego, CA) and flushed with 95% N2/5% CO2 for 5 minutes. The modular chamber was then sealed airtight and placed in an incubator for 2 hours. After 2 hours, the cells were removed from the modular incubator chamber and placed in a 21% O2 normal environment. TEER was measured to assess barrier function during A/R injury and recovery. The TEER was measured using a Chopstick Electrode Set (WPI, LLC, Sarasota, FL) on the basal and apical sides of a monolayer and attached to an Epithelial Volt Ohm Meter2 (WPI, LLC, Sarasota, FL).

C2BBe1 cells [1] = settings: 10 mM LA; regular media; 48 hours
Method: This experiment evaluated the role of LA in proliferation and migration. Specifically, proliferation of non-treated or LA-treated (10 mM) C2BBe1 cells was evaluated by the CCK-8 assay kit (Dojindo Molecular Technologies, Rockville, MD) according to the manufacturer's instructions. 10 mM LA was treated every other day to cells seeded in 96-well culture plates. Viable cells were evaluated with the CCK-8 Assay Kit for five consecutive days. Migration was assessed by seeding C2BBe1 cells in 3 well culture-inserts (ibidi GmbH, Gräfelfing, Germany) and removing the inserts after reaching confluence to create a “wound” in the cell monolayer. 10 mM LA was added to serum-free and regular media to assess migration and proliferation, respectively. Images were captured at 0, 4, 8, 24, and 48 hours with Axio Vert A1 microscope (Carl Zeiss AG, Oberkochen, Germany) and closing of the wound was analyzed by measuring migration distance with ImageJ software.

C2BBe1 cells [2] = settings: 10 mM LA
Method: For barrier function analysis, TEER was measured in monolayers of C2BBe1 cells treated with or without 10 mM LA. TEER was measured using a Chopstick Electrode Set (WPI, LLC, Sarasota, FL) on the basal and apical sides of a monolayer and attached to an Epithelial Volt Ohm Meter2 (WPI, LLC, Sarasota, FL).

tight junction proteins = settings: 10 mM LA
Method: (§1) Specifically, the distribution of tight junction proteins and actin structure was evaluated using western blots on membrane and cytosol fractions and immunofluorescence microscope analysis. Mem-PER Eukaryotic Membrane Protein Extraction Reagent Kit (Thermo Scientific) was used to fractionate membrane and cytosolic compartment. The extracted proteins were blotted with primary antibodies anti-ZO-1 and anti-occludin (Invitrogen). The cold methanol fixed monolayers were stained with primary antibodies (ZO-1 and occludin) and phalloidin (F-actin) for immunofluorescence microscope analysis. The stained monolayers were examined with an Olympus IX83 Inverted Motorized Microscope with cellSens software (Olympus, Tokyo, Japan). pMLC-2/MLC-2 expression was evaluated using western blot analysis with primary antibodies for pMLC-2 and MLC-2 (CST, Danvers, MA).

ZO-1, occludin, F-actin = system: ZO-1, occludin, F-actin
Method: as §1

C2BBe1 cells [3] = assay: TEER in A/R-injured C2BBe1 cells with MLCK and ROCK inhibitors with or without LA; format: cell-based, human; settings: 10 mM LA, 1 μM Y-27632 dihydrochloride, 400 μM Peptide 18; A/R injury; FIG. 7
Method: To evaluate barrier function, the TEER was measured in A/R-injured C2BBe1 cells treated with or without LA.

[4] = anoxic cells vs. exposed to LA for 3 h
[5] = control vs. exposed to LA for 3 h

Compound: larazotide acetate
- translational processes (GO analysis) (C2BBe1; LA-treated cells compared to non-treated cells): significantly increased
- Expression compared to control: AMOTL2 (C2BBe1; [4]): Down
- Expression compared to control: EGR1 (C2BBe1; [4]): Down
- Expression compared to control: HES1 (C2BBe1; [4]): Down
- Expression compared to control: HSPH1 (C2BBe1; [4]): Down
- Expression compared to control: JPH2 (C2BBe1; [4]): Up
- Expression compared to control: NDRG1 (C2BBe1; [4]): Up
- Expression compared to control: PFKFB4 (C2BBe1; [4]): Up
- Expression compared to control: SAMD5 (C2BBe1; [4]): Down
- Expression compared to control: SLC2A3 (C2BBe1; [4]): Up
- Expression compared to control: TNS1 (C2BBe1; [4]): Up
- Ras/Rho GTPase-binding and protein serine/threonine kinase activity (GO analysis) (C2BBe1; cells treated with LA, FIG. 10): differentially expressed
- Expression compared to control: CEBPB (C2BBe1; [5]): Up
- Expression compared to control: DDIT4 (C2BBe1; [5]): Up
- Expression compared to control: EGR1 (C2BBe1; [5]): Up
- Expression compared to control: H1F0 (C2BBe1; [5]): Up
- Expression compared to control: ID2 (C2BBe1; [5]): Up
- Expression compared to control: IGFBP4 (C2BBe1; [5]): Down
- Expression compared to control: ITGA2 (C2BBe1; [5]): Down
- Expression compared to control: MAT2A (C2BBe1; [5]): Down
- Expression compared to control: SAMD5 (C2BBe1; [5]): Down
- Expression compared to control: SYTL2 (C2BBe1; [5]): Down
- TEER (C2BBe1 intestinal cells): significantly (p<0.001) increases the TEER; also recorded: significantly increased (p<0.001)
- wound healing (C2BBe1 cells [1]): significantly increased wound healing
- TEER (C2BBe1 cells [2]; compared to non-treated A/R injured cells at 1 hour after treatment (FIG. 12 legend)): significantly increased TEER
- TEER (C2BBe1 cells [2]; normal conditions, FIG. 12): increased TEER
- occludin in the membrane fraction (immunoblotting) (tight junction proteins; 1-hour reoxygenation, compared to non-treated anoxic injured cells): significantly (p<0.05) increased in the membrane
- disruption of tight junction proteins during A/R injury (tight junction proteins; FIG. 3): prevented disruption of tight junction proteins
- F-actin structure during A/R injury (ZO-1, occludin, F-actin; 10 mM LA, FIG. 4): protected
- localization of tight junction and cytoskeleton proteins (ZO-1, occludin, F-actin) by immunofluorescence (ZO-1, occludin, F-actin; 1-hour reoxygenation, versus non-treated anoxic injured cells): revealed well-organized tight junction proteins and F-actin

Compound: O=S(=O)(c1cccc2cnccc12)N1CCCNCC1 [Fasudil]
- TEER compared to non-treated A/R injured cells (C2BBe1 cells [3]): increased TEER
